Test results as given in patent US20150246025A1, “2-PHENYL-5-HETEROCYCLYL-TETRAHYDRO-2H-PYRAN-3-AMINE COMPOUNDS FOR USE IN THE TREATMENT OF DIABETES AND ITS ASSOCIATED DISORDERS” (CADILA HEALTHCARE LIMITED, priority 2012, published 2015).

Key:
[1] = target: T1, DPP-IV enzyme (Homo sapiens, UniProt P27487); test: In vitro DPP-IV inhibitory activity using enzymatic (fluorescence-based) assay; assay type: biochemical; conditions: soluble human DPP-IV, H-Gly-Pro-AMC 200 μM, pH 7.8, 25° C., 30 min; read-out: % In-vitro DPPIV Inhibition IC50
T1 construct: soluble human proteins (DPP-IV enzyme) produced in a baculovirus expression system; made in house; host or cells: baculovirus expression system (Life Technologies)
T1 sequence (P27487 39-766 limits assumed): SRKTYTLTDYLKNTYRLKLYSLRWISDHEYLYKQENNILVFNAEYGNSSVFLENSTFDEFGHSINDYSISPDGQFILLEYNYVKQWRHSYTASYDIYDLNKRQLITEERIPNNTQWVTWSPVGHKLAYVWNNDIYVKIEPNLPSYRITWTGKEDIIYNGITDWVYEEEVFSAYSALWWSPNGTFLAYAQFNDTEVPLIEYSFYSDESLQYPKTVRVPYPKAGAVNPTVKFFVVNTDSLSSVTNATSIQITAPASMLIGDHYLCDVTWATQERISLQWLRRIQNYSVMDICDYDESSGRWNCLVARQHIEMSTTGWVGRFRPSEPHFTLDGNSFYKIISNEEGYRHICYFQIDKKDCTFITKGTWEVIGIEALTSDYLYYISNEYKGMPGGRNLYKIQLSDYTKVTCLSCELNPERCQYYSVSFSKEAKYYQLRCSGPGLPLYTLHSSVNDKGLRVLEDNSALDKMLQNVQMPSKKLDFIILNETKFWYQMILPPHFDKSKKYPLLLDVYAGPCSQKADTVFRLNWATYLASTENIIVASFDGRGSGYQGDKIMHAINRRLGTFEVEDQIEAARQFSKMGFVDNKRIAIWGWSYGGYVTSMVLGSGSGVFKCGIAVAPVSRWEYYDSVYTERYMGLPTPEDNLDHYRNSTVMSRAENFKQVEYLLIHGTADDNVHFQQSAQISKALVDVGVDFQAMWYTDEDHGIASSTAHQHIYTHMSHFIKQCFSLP
Procedure: In Vitro DPP-IV Inhibitory Activity Using Enzymatic Assay:
In vitro enzyme (DPP-IV) inhibitory activity was determined using fluorescence-based assay (Anal. Biochem., 200, 352, 1992). The Gly-Pro-AMC was used as a substrate (which is cleaved by the enzymes to release the fluorescent AMC) and soluble human proteins (DPP-IV enzyme) produced in a baculovirus expression system (Life Technologies) was used as the enzyme source. The H-Gly-Pro-AMC (200 μM) was incubated with DPP-IV enzyme in the presence of various concentrations (30 & 100 nM) of test compounds. Reaction was carried out at pH 7.8 (HEPES buffer 25 mM containing 1.0% BSA, 140 mM NaCl, 16 mM MgCl2, 2.8% DMSO) in a total volume of 100 μl at 25° C. for 30 min., in the dark. Reaction was terminated with acetic acid (25 μl of 25% solution). Activity (fluorescence) was measured using Spectra Max fluorometer (Molecular Devices, Sunnyvale Calif.) by exciting at 380 nm and emission at 460 nm.

[2] = tested on: C57BL/6J mice; test: In vivo antihyperglycaemic/antidiabetic activity (OGTT), acute single dose 120-min time-course; conditions: Mus musculus, 2 h; male C57BL/6J mice, acute single dose 0,3 mg/kg po, 120-min time-course, n = 6, Mean ± SEM; read-out: In vivo OGTT C57; % Glucose change
Procedure: Acute single dose 120-min time-course experiments were carried out in male C57BL/6J mice, age 8-12 weeks, bred in-house. Animals were housed in groups of 6 animals per cage, for a week, in order to habituate them to vivarium conditions (25±4° C., 60-65% relative humidity, 12: 12 h light: dark cycle, with lights on at 7.30 am). All the animal experiments were carried out according to the internationally valid guidelines following approval by the ‘Zydus Research Center animal ethical committee’.
The in-vivo glucose lowering properties of the test compounds were evaluated in C57BL/6J (mild hyperglycemic) animal models as described below. Two days prior to the study, the animals were randomized and divided into groups (n=6), based upon their fed glucose levels. On the day of experiment, food was withdrawn from all the cages, water was given ad-libitum and were kept for overnight fasting. Vehicle (normal saline)/test compounds were administered orally, on a body weight basis. Soon after the 0 min. blood collection from each animal, the subsequent blood collections were done at 30, 60 and 120 or upto 240 min., via retro-orbital route, under light ether anesthesia (Diabetes Obesity Metabolism, 7, 307, 2005; Diabetes, 52, 751, 2003).
Blood samples were centrifuged and the separated serum was immediately subjected for the glucose estimation. Serum for insulin estimation was stored at −70° C. until used for the insulin estimation. The glucose estimation was carried out with DPEC-GOD/POD method (Ranbaxy Fine Chemicals Limited, Diagnostic division, India), using Spectramax-190, in 96-microwell plate reader (Molecular devices Corporation, Sunnyvale, Calif.). […] The AUC and BCAUC obtained from graphs were analyzed for one way ANOVA, followed by Dunnett's post test, using Graph Pad prism software.

[3] = Pharmacokinetic study in Wistar rats; assay type: in vivo; conditions: rat, plasma, po; male wistar rats, 2 mg/kg orally, n = 6, Mean ± SD
Procedure: Pharmacokinetic Study in Wistar Rats
The pharmacokinetic parameters of test compounds were determined in male wistar rats (n=6). Briefly, test compounds were administered orally/iv on a body weight basis to overnight fasted rats. Serial blood samples were collected in microcentrifuge tubes containing EDTA at pre-dose and post-dose after compounds administration, over a period of 168 hrs. Blood was collected at various time points and centrifuged at 4° C. The obtained plasma was frozen, stored at −70° C. and the concentrations of compounds in plasma were determined by the LC-MS/MS (Shimadzu LC 1 OAD, USA), using YMC hydrosphere C18 (2.0×50 mm, 3 μm) column (YMC Inc., USA). The pharmacokinetic parameters, such as Tmax, t1/2, AUC and % F were calculated using a non-compartmental model of WinNonlin software version 5.2.1.

IC50 [1] | AUC [3] | Cmax [3] | half-life [3] | Structure (SMILES) | change in vivo at 0.3 mg/kg [2]
< 30 nM | 888 ± 129 ng·h/mL | 148 ± 34.2 ng/mL | 33.3 ± 2.07 h | CS(=O)(=O)N1CC2CN([C@H]3CO[C@H](c4cc(F)ccc4F)[C@@H](N)C3)CC2C1 (stereo partly drawn) [Compound 1, (2R,3S,5R)-2-(2,5-difluorophenyl)-5-(5-(methylsulfonyl)-hexahydro-pyrrolo[3,4-c]pyrrol-2(1H)-yl)tetrahydro-2H-pyran-3-amine] | -22.5 ± 4.5%
< 100 nM | 2970 ± 1070 ng·h/mL | 301 ± 44.3 ng/mL | 48.2 ± 11.1 h | N[C@H]1C[C@@H](N2CC3COCC3C2)CO[C@@H]1c1cc(F)ccc1F (stereo partly drawn) [Compound 3, (2R,3S,5R)-2-(2,5-difluorophenyl)-5-(tetrahydro-1H-furo[3,4-c]pyrrol-5(3H)-yl)tetrahydro-2H-pyran-3-amine] | -27.6 ± 1.6%
< 10 nM | 4750 ± 647 ng·h/mL | 459 ± 52.2 ng/mL | 59.5 ± 6.44 h | CS(=O)(=O)N1CC2=C(CN([C@H]3CO[C@H](c4cc(F)ccc4F)[C@@H](N)C3)C2)C1 [Compound 8, (2R,3S,5R)-2-(2,5-difluorophenyl)-5-(5-(methylsulfonyl)-5,6-dihydropyrrolo[3,4-c]pyrrol-2(1H,3H,4H)-yl)tetrahydro-2H-pyran-3-amine] | -49.1 ± 3.6%
 | 1550 ± 114 ng·h/mL | 419 ± 45.5 ng/mL | 32.5 ± 5.91 h | N[C@H]1C[C@@H](N2CC3=C(C2)CS(=O)(=O)C3)CO[C@@H]1c1cc(F)ccc1F [Compound 17, 5-((3R,5S,6R)-5-amino-6-(2,5-difluorophenyl)tetrahydro-2H-pyran-3-yl)-3,4,5,6-tetrahydro-1H-thieno[3,4-c]pyrrole 2,2-dioxide] | -27.3 ± 3.3%
< 10 nM |  |  |  | N[C@H]1C[C@@H](N2CC3=C(CN(C(=O)Nc4ccccc4)C3)C2)CO[C@@H]1c1cc(F)ccc1F [Compound 45, 5-((3R,5S,6R)-5-amino-6-(2,5-difluorophenyl)tetrahydro-2H-pyran-3-yl)-N-phenyl-3,4,5,6-tetrahydropyrrolo[3,4-c]pyrrole-2(1H)-carboxamide] | -34.9 ± 4.4%
< 100 nM |  |  |  | CC(=O)N[C@H]1C[C@@H](N2CC3=C(C2)CN(S(C)(=O)=O)C3)CO[C@@H]1c1cc(F)ccc1F [Compound 46, N-((2R,3S,5R)-2-(2,5-difluorophenyl)-5-(5-(methylsulfonyl)-5,6-dihydropyrrolo[3,4-c]pyrrol-2(1H,3H,4H)-yl)tetrahydro-2H-pyran-3-yl)acetamide] | -9.3 ± 3.8%
< 100 nM |  |  |  | CC(=O)N[C@H]1C[C@@H](N2CC3=C(CN(C(C)=O)C3)C2)CO[C@@H]1c1cc(F)ccc1F [Compound 47, N-((2R,3S,5R)-5-(5-acetyl-5,6-dihydropyrrolo[3,4-c]pyrrol-2(1H,3H,4H)-yl)-2-(2,5-difluorophenyl)tetrahydro-2H-pyran-3-yl)acetamide] | 8.6 ± 5.9%
< 10 nM |  |  |  | N[C@H]1C[C@@H](N2CC3=C(CN(C=O)C3)C2)CO[C@@H]1c1cc(F)ccc1F [Compound 48, 5-((3R,5S,6R)-5-amino-6-(2,5-difluorophenyl)tetrahydro-2H-pyran-3-yl)-3,4,5,6-tetrahydropyrrolo[3,4-c]pyrrole-2(1H)-carbaldehyde] | -38.5 ± 1.5%
< 10 nM |  |  |  | N[C@H]1C[C@@H](N2CC3=C(CN(C(=O)C(F)(F)F)C3)C2)CO[C@@H]1c1cc(F)ccc1F [Compound 50, 1-(5-((3R,5S,6R)-5-amino-6-(2,5-difluorophenyl)tetrahydro-2H-pyran-3-yl)-5,6-dihydropyrrolo[3,4-c]pyrrol-2(1H,3H,4H)-yl)-2,2,2-trifluoroethanone] | -30 ± 1.4%
